Measurements: US20230295133A1, “PROCESS FOR PREPARING A COMPOUND USEFUL TO TREAT MYCOSES” (PULMOCIDE LIMITED, priority 2014, published 2023)
≈ marks a conversion by molar mass, not a printed value.

Tests used:
[1] = system: Aspergillus fumigatus (NCPF2010) invasion; test: Aspergillus fumigatus infection of human alveoli bilayers (transwells), GM in lower chamber; assay type: cell-based; settings: Posaconazole 0.01 µg/mL lower chamber
Description: In vitro models of human alveoli, consisting of a bilayer of human alveolar epithelial cells and endothelial cells, were prepared as previously described (Hope et al., 2007). This system allows administration of a test compound to the upper (“air” space) and/or lower (“systemic” space) compartments. This flexibility has been exploited to explore the effects of combination treatments by dosing compound Example 1 to the upper chamber and posaconazole or other anti-fungal agents to the lower chamber. Primary human pulmonary artery endothelial cells (HPAEC) were harvested and diluted to 10^6 cells/mL in EGM-2 media (Lonza, Basel, Switzerland). Transwells were inverted and the cell suspension (100 µL/well) was applied to the base of each transwell. The inverted transwells were incubated at RT within a flow hood for 2 hr after which they were turned upright. EGM-2 media was added to the lower (700 µL/well) and upper (100 µL/well) compartments and the transwells were incubated for 48 hr (37° C., 5% CO2). The EGM-2 media in the lower compartment was then replaced with fresh EGM-2 media. A549 cells were harvested and diluted to 5×10^5 cells/mL in 10% EBM, then added to the upper compartment (100 µL/well) of all transwells and the plates incubated for 72 hr (37° C., 5% CO2). Conidia of aspergillus fumigatus (the itraconazole sensitive strain NCPF2010 and the itraconazole resistant strain TR34-L98H) were cultured separately in Sabouraud dextrose agar for 3 days. A stock conidia suspension of either strain was prepared from a Sabouraud dextrose agar culture by washing with PBS-tween (10 mL; PBS containing 0.05% Tween-20, 100 U/mL Penicillin and 100 U/mL Streptomycin). The conidia count was assessed using a Neubauer haemocytometer and adjusted to 10^6 conidia/mL with PBS. A working stock of conidia was prepared in EBM (conc of 10^5 conidia/mL) immediately prior to use.
Test and reference compounds (or neat DMSO as the vehicle) were added to the appropriate wells of 24-well plates (3 µL/well containing 600 µL of 2% FBS EBM) for lower compartment treatment and to 96-well plates (1 µL/well containing 200 µL of 2% FBS EBM) for the treatment of the upper compartment, to provide a final DMSO concentration of 0.5%. The media in the upper compartment was aspirated and that containing the appropriate test and reference compounds, or vehicle, were added (100 µL/well). Transwells were then transferred into the 24-well plate containing the test and reference compounds or DMSO vehicle. After incubation for 1 hr (35° C., 5% CO2) the conidia suspension (10 µL/well) was added to the upper compartment of each transwell. Plates were then incubated for 24 hr (35° C., 5% CO2). Supernatants from each compartment (5 µL/compartment) were collected and stored (-20° C.). Media was replaced daily after collection of the supernatants and all wells were treated with test and reference compounds or with DMSO, as described above, for 3 days. Samples continued to be collected until fungal growth was visible by eye in all transwells. The levels of GM in the supernatant in lower compartment were then measured by ELISA (BioRad, CA, USA) as an index of aspergillus fumigatus invasion.

[2] = system: aspergillus fumigatus (ATCC 13073 [strain: NIH 5233]); test: In vivo anti-fungal activity, prophylactic and therapeutic treatment of infected immunocompromised neutropenic mice; design: species or system A/J mice; settings: for Cell numbers in BALF, Macrophage / Cell numbers in BALF, Neutrophil / TNFα conc in serum: mean ± SEM
[3] = system: Chaectomium globosum ATCC44699; test: Fungus panel screening, CLSI broth microdilution; assay type: cell-based
Description: Fungus panel screening was conducted by Eurofins Panlabs Inc. The MIC and MIC50 values of the test articles were determined following the guidelines of the Clinical and Laboratory Standards Institute, broth microdilution methods for yeast (CLSI M27-A2), (CLSI, 2002) and for filamentous fungi (CLSI M38-A), (CLSI, 2008).

[4] = system: aspergillus fumigatus (ATCC 13073 [strain: NIH 5233]); test: Survival of severely immunosuppressed neutropenic infected mice, monotherapy and combination; assay type: in vivo, A/J mice; settings: Example 1 0.4 mg/mL (in); Posaconazole 1 mg/kg (po); once daily days 1-6
Description: On day 0, animals were infected intranasally with 35 µL of the spore suspension (1.67 × 10^8 spores/mL in physiological saline) of aspergillus fumigatus (ATCC 13073 [strain: NIH 5233]). Compound Example (I), prepared as a suspension in isotonic saline (0.4 mg/mL), was dosed once daily by an intra-nasal injection (35 µL/mouse) on days 1-6 after infection. Posaconazole (1 mg/kg) was given orally once daily on days 1-6 after infection. Body weight and survival were monitored daily up to day 7.

[5] = system: Aspergillus fumigatus (NCPF2010); test: Resazurin-microtitre assay of planktonic fungus growth; assay type: cell-based; settings: Aspergillus fumigatus NCPF2010; resazurin-microtitre assay
Description: This assay was conducted using a modified, published method (Monteiro et al., 2012). Spores of aspergillus fumigatus (NCPF2010, Public Health England, Wiltshire) were cultured in Sabouraud dextrose agar for 3 days. A stock spore suspension was prepared from a Sabouraud dextrose agar culture by washing with PBS-tween (10 mL; PBS containing 0.05% Tween-20, 100 U/mL Penicillin and 100 U/mL Streptomycin). The spore count was assessed using a Neubauer haemocytometer and, using PBS adjusted to 10^6 spores/mL. A working suspension of spores (10^4 spores/mL) was prepared in filter sterilised MOPS RPMI-1640 (50 mL; RPMI-1640 containing 2 mM L-glutamine, 2% glucose and 0.165 M MOPS, buffered to pH 7 with NaOH). Resazurin sodium salt (100 µL of 1% solution; Sigma-Aldrich, Dorset, UK) was added to the spore suspension and mixed well. The spore suspension-resazurin mixture (100 µL/well) was added to 384-well plates (Catalogue number 353962, BD Falcon, Oxford, UK).
Simultaneously, test compounds (0.5 µL DMSO solution) were added to 100 µL of the spore-resazurin mixture in quadruplicate to provide a final DMSO solution of 0.5% using an Integra VIAFLO 96 (Intergra, Zizers, Switzerland). For non-spore control wells, MOPS-RPMI-resazurin solution (100 µL) was added instead of the spore-resazurin mixture. The plate was covered with a Breathe Easier membrane (Catalogue No Z763624, Sigma-Aldrich, Dorset, UK), and incubated (35° C., 5% CO2) until fluorescence in the inoculated wells was double that of the control wells (around 24 hr). The fluorescence of each well (545 nm (excitation) / 590 nm (emission), gain 800, focal height 5.5 mm) was determined using a multi-scanner (Clariostar: BMG, Buckinghamshire, UK). The percentage inhibition for each well was calculated and the MIC50, MIC75 and MIC90 values were calculated from the concentration-response curve generated for each test compound.

[6] = system: Aspergillus fumigatus NCPF7100; test: Broth microdilution assay (modified EUCAST); assay type: cell-based; settings: broth microdilution assay, n = 3
[7] = system: Aspergillus fumigatus NCPF2010; test: Broth microdilution assay (modified EUCAST); assay type: cell-based; settings: broth microdilution assay, n = 3; read-out: MIC75 against Aspergillus fumigatus isolate NCPF2010
In short: (§1)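 Spores from 3-day Sabouraud cultures (working suspension 2 × 10^5 spores/mL) were added to an equal volume of RPMI-1640 (2 mM L-glutamine, 0.5% BSA, 2% glucose, 0.165 M MOPS, pH 7) containing compound, in quadruplicate. After 48 hr at 35 °C, OD530 gave percent inhibition. MIC50, MIC75 and MIC90 came from concentration-response curves.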

[8] = system: Aspergillus fumigatus L98H (TR34/L98H); test: Broth microdilution assay (modified EUCAST); assay type: cell-based; settings: broth microdilution assay, n = 3
In short: as §1

[9] = system: Aspergillus fumigatus NCPF7099; test: Broth microdilution assay (modified EUCAST); assay type: cell-based; settings: n = 3, read-out: MIC75 against Aspergillus fumigatus isolate NCPF7099
In short: as §1

[10] = treatment day 1, Example 1 0.1 µg/mL upper chamber
[11] = treatment day 6, Example 1 0.1 µg/mL upper chamber
[12] = prophylactic treatment (days 0, 1, 2 and 3), 0.4 mg/mL
[13] = prophylactic treatment, 0.08 mg/mL
[14] = prophylactic treatment, 0.4 mg/mL
[15] = prophylactic treatment, 2 mg/mL
[16] = therapeutic treatment (days 1, 2 and 3), 0.4 mg/mL
[17] = therapeutic treatment, 0.4 mg/mL
[18] = therapeutic treatment, 10 mg/mL

Cc1cc(N2CCN(c3ccc(C(=O)Nc4ccc(F)cc4)cc3)CC2)ccc1OC[C@@H]1CO[C@@](Cn2cncn2)(c2ccc(F)cc2F)C1 [Example 1, 4-(4-(4-(((3R,5R)-5-((1H-1,2,4-Triazol-1-yl)Methyl)-5-(2,4-Difluorophenyl)Tetra Hydrofuran-3-yl)Methoxy)-3-Methylphenyl)Piperazin-1-yl)-N-(4-Fluorophenyl) Benzamide]
GM Levels in the Lower Chamber, OD value ([1]; treatment day 0, Example 1 0.1 µg/mL upper chamber): 0 OD
GM Levels in the Lower Chamber, % inhibition vs. control [1, 10]: 86%
GM Levels in the Lower Chamber, OD value [1, 10]: 0.091 OD
GM Levels in the Lower Chamber, % inhibition vs. control ([1]; treatment day 2, Example 1 0.1 µg/mL upper chamber): 3.4%
GM Levels in the Lower Chamber, % inhibition vs. control ([1]; treatment day 3, Example 1 0.1 µg/mL upper chamber): 3.7%
GM Levels in the Lower Chamber, % inhibition vs. control ([1]; treatment day 4, Example 1 0.1 µg/mL upper chamber): 4.5%
GM Levels in the Lower Chamber, % inhibition vs. control ([1]; treatment day 5, Example 1 0.1 µg/mL upper chamber): 0.3%
GM Levels in the Lower Chamber, % inhibition vs. control [1, 11]: -0.3%
GM Levels in the Lower Chamber, OD value [1, 11]: 1.18 OD
GM Levels in the Lower Chamber, % inhibition vs. control ([1]; treatment day 7, Example 1 0.1 µg/mL upper chamber): 0.9%
GM Levels in the Lower Chamber, % inhibition vs. control ([1]; treatment day 8, Example 1 0.1 µg/mL upper chamber): 2.8%
% Inhibition versus Infected Controls, GM in BALF [2, 12]: 92%
% Inhibition versus Infected Controls, GM in serum [2, 12]: 95%
% Inhibition versus Infected Controls, Lung Fungal Load [2, 12]: 81%
Macrophage in BALF, % inhibition [2, 13]: 38%
Neutrophil in BALF, % inhibition [2, 13]: 24%
Cell numbers in BALF, Macrophage [2, 13]: 0.40 ± 0.15 ×10^5/mL
Cell numbers in BALF, Neutrophil [2, 13]: 0.37 ± 0.04 ×10^5/mL
Macrophage in BALF, % inhibition [2, 14]: 51%
Neutrophil in BALF, % inhibition [2, 14]: 47%
Cell numbers in BALF, Macrophage [2, 14]: 0.32 ± 0.07 ×10^5/mL
Cell numbers in BALF, Neutrophil [2, 14]: 0.26 ± 0.12 ×10^5/mL
TNFα conc in serum [2, 14]: 7.3 ± 3.5 pg/mL
Macrophage in BALF, % inhibition [2, 15]: 60%
Neutrophil in BALF, % inhibition [2, 15]: 55%
Cell numbers in BALF, Macrophage [2, 15]: 0.26 ± 0.05 ×10^5/mL
Cell numbers in BALF, Neutrophil [2, 15]: 0.22 ± 0.04 ×10^5/mL
TNFα conc in serum [2, 15]: 4.7 ± 0.4 pg/mL
% Inhibition versus Infected Control, GM in BALF [2, 16]: 94%
% Inhibition versus Infected Control, GM in serum [2, 16]: 91%
% Inhibition versus Infected Control, Lung Fungal Load [2, 16]: 97%
Macrophage in BALF, % inhibition [2, 17]: 34%
Neutrophil in BALF, % inhibition [2, 17]: 22%
Cell numbers in BALF, Macrophage [2, 17]: 0.43 ± 0.05 ×10^5/mL
Cell numbers in BALF, Neutrophil [2, 17]: 0.38 ± 0.04 ×10^5/mL
TNFα conc in serum [2, 17]: 6.2 ± 0.5 pg/mL
Macrophage in BALF, % inhibition ([2]; therapeutic treatment, 2 mg/mL): 38%
Neutrophil in BALF, % inhibition ([2]; therapeutic treatment, 2 mg/mL): 31%
Cell numbers in BALF, Macrophage ([2]; therapeutic treatment, 2 mg/mL): 0.40 ± 0.11 ×10^5/mL
Cell numbers in BALF, Neutrophil ([2]; therapeutic treatment, 2 mg/mL): 0.34 ± 0.05 ×10^5/mL
TNFα conc in serum ([2]; therapeutic treatment, 2 mg/mL): 5.5 ± 0.7 pg/mL
Macrophage in BALF, % inhibition [2, 18]: 51%
Neutrophil in BALF, % inhibition [2, 18]: 45%
Cell numbers in BALF, Macrophage [2, 18]: 0.32 ± 0.07 ×10^5/mL
Cell numbers in BALF, Neutrophil [2, 18]: 0.27 ± 0.08 ×10^5/mL
TNFα conc in serum [2, 18]: 4.9 ± 0.6 pg/mL
MIC50 ([3]; 50% inhibition by visual inspection (CLSI)): 0.063 µg/mL (≈ 0.0923 µM)
MIC ([3]; 100% inhibition by visual inspection (CLSI), read-out: MIC100): > 8 µg/mL
Median survival [4]: 6 days
No. of survivors on day 7 [4]: 0/6
Survivors on day 7 (%) [4]: 0%

C[C@@H]1[C@H](O)[C@@H](C)/C=C/C=C/C=C/C=C/C=C/C=C/C=C/[C@H](O[C@@H]2O[C@H](C)[C@@H](O)[C@H](N)[C@@H]2O)C[C@@H]2O[C@](O)(C[C@@H](O)C[C@@H](O)[C@H](O)CC[C@@H](O)C[C@@H](O)CC(=O)O[C@H]1C)C[C@H](O)[C@H]2C(=O)O [Amphotericin B, reference compound]
MIC50 Planktonic fungal growth [5]: 28.5 nM (≈ 0.0263 µg/mL)
MIC75 Planktonic fungal growth [5]: 64.4 nM (≈ 0.0595 µg/mL)
MIC75 against Aspergillus fumigatus isolate NCPF7100 [6]: >1080 nM
MIC [7]: 382 nM (≈ 0.353 µg/mL)
MIC75 against Aspergillus fumigatus isolate L98H [8]: 209 nM (≈ 0.193 µg/mL)
MIC [9]: 365 nM (≈ 0.337 µg/mL)
